Assay results from US20110171261A1, “IMMUNOGENIC COMPOSITION” (priority 2008, published 2011).

Assays:
[1] = target: T1, CXCR4 (Homo sapiens, UniProt P61073); experiment: CXCL12-mediated (CXCR4) chemotaxis of CCRF-CEM cells, specificity; assay type: cell-based; details: 3 nM CXCL12; 2 μM CCR4 antagonists (1000 times higher than IC50); n=2
T1 construct: Expression of chemokine receptors CCR4 and CXCR4 by CCRF-CEM cells; endogenous in cells; host or cells: CCRF-CEM
Experimental: FIG. 2: Assessment of the specificity of CCR4 antagonists. (A) Expression of chemokine receptors CCR4 and CXCR4 by CCRF-CEM cells.
Cell migration was measured by chemotaxis through a 5 μm pore polycarbonate filter in 24-well transwell chambers (Costar, Cambridge, Mass.). Chemokines (R&D systems) were placed in lower chambers in 600 μl RPMI/1% FCS medium and cells were placed in upper chambers in 100 μl medium. After 2 h incubation at 37° C., cells in the lower chamber were recovered and counted with a FACSCalibur (Becton Dickinson, Mountain View, Calif.). Preliminary chemokine titration experiments established optimal doses for chemotaxis: (1) for CCRF-CEM cells, 6 nM CCL22 and 3 nM CCL17 or CXCL12; (2) for Tregs and Th2 cells, 1.2 nM CCL22 or CCL17. To assess CCR4 antagonism, candidate antagonist compounds (10 nM) were mixed directly with chemokines as indicated. Percent inhibition of chemotaxis by CCR4 antagonists was calculated in relation to controls treated with solvent (DMSO) alone as follows: ([no. cells migrated in the presence of DMSO—no. cells migrated in the presence of antagonist]/no. cells migrated in the presence of DMSO)×100. To measure IC50 values, graded doses of antagonists were added to a constant concentration of CCL22.
CCRF-CEM also expresses another chemokine receptor, CXCR4 (FIG. 2A), which allowed the specificity of the CCR4 antagonists to be tested. With the exception of one antagonist, the compounds had no effect on either CXCR4-mediated migration (FIG. 2B) or cell viability (data not shown), even at concentrations 1000 times higher than their IC50 values (˜2 μM)

[2] = test system: CD4+CD25+ regulatory T cells; experiment: Cell viability of Tregs; assay type: cell-based, human
[3] = test system: PPD-reactive IFN-γ-secreting cells; experiment: T cell response (IFN-γ ELISPOT and CBA) in mice after MVA85A vaccination; assay type: in vivo, BALB/c mice; details: i.m., MVA85A plus ~2.5 μM antagonist, 6 days post vaccination, splenocytes, 20 μg/ml PPD; for frequency of PPD-reactive IFN-γ-secreting cells (ELISPOT): vs DMSO; for production of IFN-γ in PPD-stimulated cultures (supernatant, CBA): 18 h
[4] = target: T2, CCR4 (Mus musculus, UniProt P51680); experiment: CCR4-mediated migration of mouse cells in vitro; assay type: cell-based; details: data not shown
T2 construct: endogenous in cells
T2 sequence (P51680 1-360): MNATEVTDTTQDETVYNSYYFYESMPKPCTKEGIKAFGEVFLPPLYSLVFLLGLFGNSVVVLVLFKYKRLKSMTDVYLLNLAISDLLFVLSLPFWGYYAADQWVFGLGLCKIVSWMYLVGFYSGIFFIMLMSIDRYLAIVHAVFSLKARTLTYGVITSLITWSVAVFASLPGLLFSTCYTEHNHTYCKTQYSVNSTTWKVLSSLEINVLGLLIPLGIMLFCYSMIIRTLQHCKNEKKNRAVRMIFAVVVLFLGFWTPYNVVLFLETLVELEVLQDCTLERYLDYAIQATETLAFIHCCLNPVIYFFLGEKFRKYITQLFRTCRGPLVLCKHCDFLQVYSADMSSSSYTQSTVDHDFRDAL

[5] = test system: antibody response to the HBsAg; experiment: ELISA of sera of mice immunised with HBsAg in SP50 adjuvant at different concentrations (Example 6); assay type: in vivo, Balb/c mice; details: s.c., 0.5 micrograms HBsAg with SP50 at 1 millimolar, 100 micromolar or 10 micromolar, boost day 14, bled 14 days later, all concentrations
Text: FIG. 7: CCR4 antagonist SP50 (Compound VIII—AF-399/42016530—4-(1-benzofuran-2-ylcarbonyl)-1-[5-(benzylsulfanyl)-1,3,4-thiadiazol-2-yl]-3-hydroxy-5-(2-thienyl)-1,5-dihydro-2H-pyrrol-2-one. MW: 531.64. Formula: C26H17N3O4S3) enhances the immunogenicity of a vaccine in vivo. The graph in FIG. 7 depicts the results of an ELISA assay of sera of mice immunised with HBsAg in different concentrations of SP50 adjuvant or of HBsAg in DMSO (negative control) or of HBsAG in the commercially used vaccine composition Engerix™. […] Each line represents the mean of a group of 4 mice.
6 week old female Balb/c mice were used, and immunised with a recombinant Hepatitis B surface antigen (HBsAg) from Biospacific, 598 Horton St no 225, Emeryville Calif. 94608, Catalogue number J44050228 lot number 4475.
Groups of 4 mice were given 0.5 micrograms of HBsAg subcutaneously in 25 microlitres of saline with an equal volume of SP50 at concentrations of 1 millimolar, 100 micromolar or 10 micromolar. Controls received 0.5 micrograms of HBsAg plus 25 microlitres of DMSO (the vehicle used to dissolve the SP50). A second control group received a dose of the alum-adjuvanted commercial Hepatitis B vaccine “Engerix” containing 0.5 micrograms of HBsAg. 14 days later the mice were boosted in an identical fashion and they were bled out a further 14 days later. […]

[6] = test system: HBsAg specific antibodies; experiment: Anti-HBsAg IgG ELISA after rHBsAg vaccination of mice; assay type: in vivo, BALB/c mice; details: 14 days after second vaccination

T1 sequence (P61073 whole entry): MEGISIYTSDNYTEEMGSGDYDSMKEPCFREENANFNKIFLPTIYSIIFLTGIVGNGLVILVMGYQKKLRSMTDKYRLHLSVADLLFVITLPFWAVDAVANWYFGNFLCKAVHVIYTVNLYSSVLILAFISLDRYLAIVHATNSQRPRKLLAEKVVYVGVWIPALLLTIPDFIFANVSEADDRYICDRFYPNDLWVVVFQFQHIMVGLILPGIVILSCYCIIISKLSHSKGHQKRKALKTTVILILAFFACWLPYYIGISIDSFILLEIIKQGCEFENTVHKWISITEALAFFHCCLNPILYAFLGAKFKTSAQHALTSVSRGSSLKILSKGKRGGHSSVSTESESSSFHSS

Row | Compound | effect on CXCL12-mediated chemotaxis (CXCR4-mediated migration) of CCRF-CEM cells [1] | effect on cell viability [2] | frequency of PPD-reactive IFN-γ-secreting cells (ELISPOT) [3] | production of IFN-γ in PPD-stimulated cultures (supernatant, CBA) [3] | inhibition of CCR4-mediated migration of mouse cells in vitro [4] | antibody response to the HBsAg (ELISA of sera) [5] | IgG subclass of anti-HBsAg IgG response [6] | titer of HBsAg specific antibodies (IgG, ELISA) ([6]; s.c., rHBsAg plus compound (~2.5 μM), vs DMSO)
1 | O=C(C1=C(O)C(=O)N(c2nnc(SCc3ccccc3Cl)s2)C1c1ccc(Cl)c(Cl)c1)c1cc2ccccc2o1 (stereo not shown) [(III)] | do not inhibit | None of the compounds affected cell viability | – | – | – | – | – | –
2 | O=C(C1=C(O)C(=O)N(c2nnc(SCc3ccc(Cl)cc3)s2)C1c1cccs1)c1cc2ccccc2o1 (stereo not shown) [(V)] | do not inhibit | None of the compounds affected cell viability | significantly enhanced | significantly greater production | inhibit | – | – | –
3 | CCc1ccc(C2C(C(=O)c3cc4ccccc4o3)=C(O)C(=O)N2c2nnc(SCc3ccccc3F)s2)cc1 (stereo not shown) [(VI)] | do not inhibit | None of the compounds affected cell viability | – | – | – | – | – | –
4 | O=C(CSc1nc(-c2ccccc2)c(-c2ccccc2)o1)Nc1ccc(S(=O)(=O)Nc2nccs2)cc1 [(XI)] | do not inhibit | None of the compounds affected cell viability | – | – | – | – | – | –
5 | O=C(C1=C(O)C(=O)N(c2nnc(SCc3ccccc3)s2)C1c1cccs1)c1cc2ccccc2o1 (stereo not shown) [compound (VIII), 4-(1-benzofuran-2-ylcarbonyl)-1-[5-(benzylsulfanyl)-1,3,4-thiadiazol-2-yl]-3-hydroxy-5-(2-thienyl)-1,5-dihydro-2H-pyrrol-2-one] | do not inhibit | None of the compounds affected cell viability | significantly enhanced | significantly greater production | inhibit | greater than that to Engerix™ | predominantly of the IgG1 subtype | significantly enhanced the titer of HBsAg specific antibodies to a level similar to that of Engerix-B
